# In patent US20050281888A1, “Nutritional supplement for infants” (priority 2004, published 2005):
# System: blood lymphocytes
# Experiment: Zinc dose response: lymphocyte response to mitogen PHA in supplemented infants
# Format: in vivo, infants (human), age 4-36 months
# Details: for Lymphocyte response to PHA (stimulation index): infants age 4-36 months
# Procedure: The basic concept underlying the assessment of the most optimum nutrient amounts for a given age group uses the principle of “dose-response graphs”. At least four groups of individuals were provided with various amounts of a given nutrient and their immune responses were measured using established and accepted techniques. The amount of a nutrient that gave the best response was considered the optimum amount. Dose response graphs were determined for all vitamins and trace elements considered essential for human health, particularly immunity.
# Data for the dose response chart for zinc in a group of 4 to 36 month old infants is shown in FIG. 1, with the total amount of zinc taken is shown for each group. To determine the magnitude of immune response, an aliquot of blood was withdrawn from each subject in the study, blood lymphocytes were separated, washed and mixed with the mitogen phytohemagglutinin (PHA) in previously determined optimum amount. The optimum amount of PHA used in the experiments was predetermined by a set of dose response graphs using lymphocytes of a healthy donor and four different concentrations of PHA. After culture in a sterile environment for 72 hours, the cells were washed and mixed with radioactive thymidine. The same steps were undertaken in a control sample in which only the culture medium was used, not PHA. The cells were washed and radioactivity determined.
# Dietary intake of zinc was calculated based on three 24-hour recalls and by the food frequency questionnaire methods.
smiles,measurement,setting,value
[Zn] [zinc],"Immune response, conclusion in words",3 mg zinc intake in addition to zinc from a balanced diet,best immune response
same,Lymphocyte response to PHA (stimulation index),supplemental zinc 3 mg,58
same,Lymphocyte response to PHA (stimulation index),supplemental zinc 6 mg,41
same,Lymphocyte response to PHA (stimulation index),supplemental zinc 9 mg,32
